In test [1] the test system is neutrophil and eosinophil infiltration in BALF after LPS inhalation. Kind of test: Inhibition of neutrophil and eosinophil infiltration after LPS inhalation in rats (experimental setup 3). The test is classed as in vivo, rat. The settings on record: for number of eosinophils within the BALF / number of neutrophils within the BALF: 24 hours after LPS inhalation, 200 μg/kg bw iv bid; for effect on neutrophils within the BALF compared to a-MSH / reduction of eosinophils in the BALF / lungs: LPS inhalation. How it is done: Inhibition of Neutrophil and Eosinophil Infiltration after LPS Inhalation in Rats.
Male Sprague-Dawley rats (weight ˜200 g) from M&B A/S, DK-8680 Ry, Denmark, are used for all experiments. The rats are caged in standard cages type 3 and housed in a temperature- (22-24° C.) and moisture-controlled (40-70%) room with a 12 h light-dark cycle (light on from 6:00 A.M. to 6:00 P.M.). The diet is autoclaved Altromin 1324 special formulation, Produced by Altromin Denmark, Chr. Pedersen A/S, 4100 Ringsted, Denmark. Diet and water are administered ad libitum.
After acclimatization the rats are randomly allocated to the experimental groups and dosed i.v. with test compound at start of LPS-induction and once again 8 hours after LPS-induction.
Rats in groups of 3 are anaesthetized with 0.1 ml hypnorm/dormicum pr. 100 g and dosed i.v with the test compound. Immediately after dosing they are placed in the inhalation chamber where they are subjected to a nebulized LPS solution. The concentration of LPS is 1 mg/ml. Dosing time is 15 minutes. The rats are euthanized 24 hours after dosing with the test substance. At termination the rats are euthanized with CO2/O2. Then bronchoalveolar lavage is performed by installing and withdrawing 6×2.5 ml of PBS to the right lung. Lavage is done with the lungs remaining in the thorax after removing sternum and costae. The connection to the left lung is tied off during this procedure. Bronchoalveolar fluid (BALF) is centrifuged at 1000 rpm at 4° C. for 10 minutes. After removing the supernatant the cell pellet is resuspended in 0.5 ml PBS and total cell count performed. Two smears of BALF stained with May-Grüjwald Giemsa stain is made from each rat. BALF from each rat is subjected to total cell count and to differential count of leucocytes.
In addition to LPS infusion all rats are treated with bolus injections of either:
• a-MSH: 200 μg/kg/bw • a-MSH analogue: 200 μg/kg/bw
Data are presented as mean±S.E. Between group comparisons are performed by one way analysis of variance followed by Fishers Least Significant Difference test. Differences are considered significant at the 0.05 level.

The test system of test [2] is ischemia-induced acute renal failure in rats. As to the kind of experiment: Inhibition of renal failure induced by 40 minutes bilateral occlusion of the renal arteries in rats (experimental setup 6). Type of test: in vivo, rat. The settings on record: for diuresis (urine flow rate): 5 day after bilateral renal ischemia (RIR), 200 μg/kg iv; for effect on post ischemic polyuria: bilateral renal ischemia. On the procedure: Inhibition of Renal Failure Induced by 40 Minutes Bilateral Occlusion of the Renal Arteries in Rats
Barrier-bred and specific pathogen-free female Wistar rats (250 g) are obtained from Charles River, Hannover, Germany. The animals are housed in a temperature (22-24° C.) and moisture (40-70%) controlled room with a 12-hour light-dark cycle (light on from 6:00 A.M. to 6:00 P.M.). All animals are given free access to tap water and a pelleted rat diet containing approximately 140 mmol/kg of sodium, 275 mmol/kg potassium and 23% protein (Altromin catalogue no. 1310, Altromin International, Lage, Germany).
The rats, which previously have been instrumented with a chronic venous catheter, are placed in metabolic cages and after a two days acclimation period to the metabolic cages, experimental ARF is induced by occlusion of both renal arteries for […]. During surgery, the rats are anesthetized with isoflurane-nitrous oxide and placed on a heated table to maintain rectal temperature at 37° C. Both kidneys are exposed through flank incisions, mobilized by being dissected free from the perirenal fat, then a small portion of the renal artery is gently dissected from the vein. The renal arteries are occluded with a smooth surfaced vascular clip (60 g pressure; World Precision Instruments, UK) for 40 min. Total ischemia is confirmed by observing blanching of the entire kidney surface. During the period of ischemia, the wounds are closed temporarily to maintain body temperature. After the clips are removed, the kidneys are observed for additional 2-5 min. to ensure color change, indicating blood reflow. Then the wound are closed with 3-0 silk ligatures. The rats returned to the metabolic cages, and daily 24 h urine output and water intake are measured for five days. As a control group, rats are subjected to sham operations identical to the ones used for ARF rats without occlusion of the renal arteries. Sham-operated rats are monitored in parallel with rats with ARF.
The rats are subjected to one of the following i.v treatments: • Vehicle: 0.5 ml 150 mM NaCl. • a-MSH: 200 μg a-melanocyte stimulating hormone/kg b.w. in 0.5 ml 150 mM NaCl. Test compound: 200 μg test compound/kg b.w. in 0.5 ml 150 mM NaCl. Treatment is given 5 minutes prior to reperfusion of the kidney and subsequently 6 and 24 hours later. Statistics
Data are presented as mean±S.E. Within group comparisons are analysed with Student's paired t test. Between group comparisons are performed by one way analysis of variance followed by Fishers Least Significant Difference test. Differences are considered significant at the 0.05 level.

Entries after “also recorded” stand apart in the source; their conditions may differ.

The results in this text go back to US8466104B2, “Therapeutically active alpha MSH analogues” (AbbVie Inc., priority 2005, dated 2013).

On to “Ac-Lys-Lys-Lys-Lys-Lys-Lys-Ser-Tyr-Ser-Met-Glu-His-Phe-Arg-Trp-Gly-Lys-Pro-Val-NH2 (Ac-KKKKKKSYSMEHFRWGKPV-NH2) [a-MSH analogue #1]”, for which, in test [1], the “number of eosinophils within the BALF” value is listed as 49.0±10.5 ×10^5cells, the “effect on neutrophils within the BALF compared to a-MSH” value (“effect … compared to a-MSH” for short) is given as “similar” and the “reduction of eosinophils in the BALF / lungs” value is recorded as “marked reduction of eosinophils”. For the same substance, in test [1] (listed as SEQ ID NO:1*), the “reduction of eosinophils in the BALF / lungs” value is “significantly inhibits”. In addition, in test [2], the “diuresis (urine flow rate)” value stood at 18.8±3.6 ml/24 hours and the “effect on post ischemic polyuria” value is listed as “complete normalization of urine flow rate”. Also, in test [2] (listed as SEQ ID NO: 1), the “effect on post ischemic polyuria” value is given as “completely normalized the diuresis”.
“Ac-Lys-Lys-Lys-Lys-Lys-Lys-Ser-Tyr-Ser-Nle-Glu-His-(D-Phe)-Arg-Trp-Gly-Lys-Pro-Val-NH2 (KKKKKKSYSXEHFRWGKPV; N-acetyl, Nle, D-Phe, C-amide) [a-MSH analogue #2]”: in test [1], the “number of eosinophils within the BALF” value is recorded as 34.0±8.6 ×10^5cells, the “number of neutrophils within the BALF” value is on record as 9.1±2.4 ×10^5cells, the “effect … compared to a-MSH” value is recorded as “much more pronounced inhibitory effects” and the “reduction of eosinophils in the BALF / lungs” value is “marked reduction of eosinophils”. Further, in test [1] (listed as SEQ ID NO: 5*), the “effect … compared to a-MSH” value was “markedly inhibited neutrophil infiltration to a much higher degree” and the “reduction of eosinophils in the BALF / lungs” value is given as “significantly inhibits”. In test [2], the “effect on post ischemic polyuria” value is “markedly reduces the degree of polyuria”.
As for “Ser-Tyr-Ser-Met-Glu-His-Phe-Arg-Trp-Gly-Lys-Pro-Val [a-MSH, reference compound]”, in test [1], the “number of eosinophils within the BALF” value is on record as 26.7±4.3 ×10^5cells, the “number of neutrophils within the BALF” value was 20.1±2.5 ×10^5cells and the “reduction of eosinophils in the BALF / lungs” value is on record as “marked reduction of eosinophils”. Besides, in test [2], the “diuresis (urine flow rate)” value is listed as 29.0±2.9 ml/24 hours and the “effect on post ischemic polyuria” value is on record as “unable to reduce the polyuria; also recorded: unable to normalize the urine production”.
